test: Heat stability of solid forms (Experimental Example 1); type: physicochemical; conditions: solid form of 1-(cyclohexyloxycarbonyloxy)ethyl ester
Excerpt: 1-(Cyclohexyloxycarbonyloxy)ethyl 2-ethoxy-1-[[2′-(1 H-tetrazol-5-yl)biphenyl-4-yl]methyl]benzimidazole-7-carboxylate is usually purified by column chromatography on silica gel and the eluted fraction is concentrated to dryness to give amorphous powders. […] For solving this problem, the present inventors made extensive experiments on crystallization of the subject compound and discovered C-type crystalline form. […] The C-type crystal of the title compound has approximately the following lattice spacings: […]

Row | SMILES | heat stability of solid form
1 | CCOc1nc2cccc(C(=O)OC(C)OC(=O)OC3CCCCC3)c2n1Cc1ccc(-c2ccccc2-c2nnn[nH]2)cc1 (centres unmarked) [C-type crystal] | stable by heat
2 | CCOc1nc2cccc(C(=O)OC(C)OC(=O)OC3CCCCC3)c2n1Cc1ccc(-c2ccccc2-c2nnn[nH]2)cc1 (centres unmarked) [amorphous powders, 1-(Cyclohexyloxycarbonyloxy)ethyl 2-ethoxy-1-[[2′-(1 H-tetrazol-5-yl)biphenyl-4-yl]methyl]benzimidazole-7-carboxylate] | unstable by heat

test: not given; conditions: not given

Row | SMILES | melting point
3 | CCOc1nc2cccc(C(=O)OC(C)OC(C)=O)c2n1Cc1ccc(-c2ccccc2-c2nnn[nH]2)cc1 (centres unmarked) [Working Example 55, 1-Acetoxyethyl 2-ethoxy-1-[[2′-(1 H-tetrazol-5-yl)biphenyl-4-yl]methyl]benzimidazole-7-carboxylate] | 105 to 107 °C
4 | CCNc1nc2cccc(C(=O)OCOC(=O)C(C)(C)C)c2n1Cc1ccc(-c2ccccc2-c2nnn[nH]2)cc1 [Working Example 62, Pivaloyloxymethyl 2-ethylamino-1-[[2′-(1 H-tetrazol-5-yl)biphenyl-4-yl]methyl]benzimidazole-7-carboxylate] | 130 to 135 °C
5 | CCOc1nc2cccc(C(=O)OCc3oc(=O)oc3C)c2n1Cc1ccc(-c2ccccc2-c2nnn[nH]2)cc1 [Working Example 49, (5-Methyl-2-oxo-1,3-dioxolen-4-yl)methyl 2-ethoxy-1-[[2′-(1 H-tetrazol-5-yl)biphenyl-4-yl]methyl]benzimidazole-7-carboxylate] | 122 to 125 °C (dec.)
6 | CCOc1nc2cccc(C(=O)OC(C)OC(=O)OC(C)C)c2n1Cc1ccc(-c2ccccc2)c(-c2nnn[nH]2)c1 (centres unmarked) [Working Example 56, 1-(Isopropoxycarbonyloxy)ethyl 2-ethoxy-1-[[2-(1 H-tetrazol-5-yl)biphenyl-4-yl]methyl]benzimidazole-7-carboxylate] | 74 to 76 °C
7 | CCOc1nc2cccc(C(=O)OCOC(=O)C3CCCC3)c2n1Cc1ccc(-c2ccccc2-c2nnn[nH]2)cc1 [Working Example 61, Cyclopentylcarbonyloxymethyl 2-ethoxy-1-[[2′-(1 H-tetrazol-5-yl)biphenyl-4-yl]methyl]benzimidazole-7-carboxylate] | 136 to 138 °C
8 | CCOc1nc2cccc(C(=O)OCOC(=O)CC)c2n1Cc1ccc(-c2ccccc2-c2nnn[nH]2)cc1 [Working Example 51, Propionyloxymethyl 2-ethoxy-1-[[2′-(1 H-tetrazol-5-yl)-biphenyl-4-yl]methyl]benzimidazole-7-carboxylate] | 145 to 150 °C (dec.)
9 | CCOc1nc2cccc(C(=O)OCOC(C)=O)c2n1Cc1ccc(-c2ccccc2-c2nnn[nH]2)cc1 [Working Example 50, Acetoxymethyl 2-ethoxy-1-[[2′-(1 H-tetrazol-5-yl)biphenyl-4-yl]methyl]benzimidazole-7-carboxylate] | 152 to 154 °C (dec.)
10 | CCOc1nc2cccc(C(=O)OCOC(=O)C(C)C)c2n1Cc1ccc(-c2ccccc2-c2nnn[nH]2)cc1 [Working Example 53, Isobutyryloxymethyl 2-ethoxy-1-[[2′-(1 H-tetrazol-5-yl)biphenyl-4-yl]methyl]benzimidazole-7-carboxylate] | 143 to 145 °C
11 | CCCC(=O)OCOC(=O)c1cccc2nc(OCC)n(Cc3ccc(-c4ccccc4-c4nnn[nH]4)cc3)c12 [Working Example 52, Butyryloxymethyl 2-ethoxy-1-[[2′-(1 H-tetrazol-5-yl)biphenyl-4-yl]methyl]benzimidazole-7-carboxylate] | 96 to 100 °C

Source: patent US6844443B2, “Benzimidazole derivatives, their production and use” (Takeda Pharmaceutical Company, Ltd., priority 1990, dated 2005)
